Data: patent US20190307771A1, “METHODS AND COMPOSITIONS FOR THE TREATMENT OF CANCER AND METABOLIC DISEASES” (THE REGENTS OF THE UNIVERSITY OF CALIFORNIA, priority 2016, published 2019)
Entries after “also recorded” stand apart in the source; their conditions may differ.

Legend:
[1] = test system: Class I (HDAC1, 2, 3, and 8) and Class IIa (HDAC4, 5, 7, and 9); details: cited from earlier work
miR-22 [2] = experiment: miR-22 expression in HCT116 cells (qRT-PCR); format: cell-based; details: 24 hours, RA 10 μM, butyrate 5 mM, propionate 10 mM, valerate 10 mM, SAHA 5 μM
Experimental: To study the effect of RA and HDAC inhibitors on miR-22 expression, HCT116 cells were treated with RA, butyrate, propionate, valerate, and SAHA. The SCFA concentrations used were within physiologic ranges^35.
Total RNA was extracted with TRIzol Reagent (Invitrogen, Carlsbad, Calif.), and cDNA was generated using High Capacity RNA-to-cDNA Kit (Applied Biosystems, Carlsbad, Calif.). qRT-PCR was performed on ABI 7900HT Fast Real time PCR system using Power SYBR® Green PCR Master Mix (Applied Biosystems, Carlsbad, Calif.).

[3] = test system: HCT116 colon cancer cells; experiment: MTT cell viability assay in HCT116 cells; format: cell-based; details: 48 hours, RA 10 μM, butyrate 5 mM, propionate 10 mM, valerate 10 mM, SAHA 5 μM, vs. DMSO
Experimental: Cell viability was monitored by MTT assay.
HCT116 cells (American Type Culture Collection) were maintained in McCoy's 5a medium from Gibco (Life Technologies, Carlsbad, Calif.) with 10% FBS. Cells were plated (1×10^6 cells per 60-mm dish, 2×10^5 cells per 6-well plates, and 1×10^5 cells per 24-well plates) overnight prior to treatment or transfection.
Cells were stained with 3-(4,5-dimethylthiazol-2-O-2,5-diphenyltetrazolium bromide (MTT, Sigma-Aldrich, St. Louis, Mo.) and measured at 570 nm with Microplate Reader (Biotek, Winooski, Vt.).

miR-22 [4] = details: published data; cited from earlier work
NUR77 and RARβ = experiment: Immunoprecipitation/Western blot: protein acetylation of NUR77 and RARβ; format: cell-based; details: HCT116 cells; IP with anti-NUR77 or anti-RARβ, anti-acetyl lysine blot
From the text: FIG. 12A depicts the expression levels of proteins that were extracted from HCT116 cells and immunoprecipitated by anti-NUR77 and RARβ antibodies or IgG, followed by Western blot using an anti-acetyl lysine antibody. […] The mRNA levels of NUR77 target genes BRE as well as CCND2 and RARβ target genes RARβ and CYP26A1 in HCT116 cells are shown in FIG. 12C.
NUR77 and RARβ acetylation status was also studied because protein acetylation alters nuclear receptor activity^37. […] To study the effect of RA/butyrate in modulating NUR77 and RARβ transcriptional activity, ChIP-qPCR and RT-PCR were performed to determine receptor binding to transcriptional regulatory regions and mRNA levels of downstream targets, respectively.
(§1) Western blot and immunoprecipitation were performed as described previously^22. Specific antibodies used included anti-NUR77, RARβ, SIRT1, β-actin, and IgG (Santa Cruz Biotechnology, Santa Cruz, Calif.), phospho-JNK1/2, total JNK1/2, cleaved caspase3, HDAC1 and HDAC4 (Cell Signaling Technology, Beverly, Mass.), and CCNA2 (Novus Biologicals, Littleton, Colo.). To detect protein acetylation of NUR77 and RARβ, cell lysates (500 μg) were incubated with anti-NUR77, RARβ, or IgG antibody (1 μg), precipitated by adding Dynabeads (30 μl, Life Technologies, Carlsbad, Calif.), and probed with anti-Acetyl-lysine antibody (Cell Signaling Technology, Beverly, Mass.). To study the interaction between RARβ and NUR77, whole-cell lysates were precipitated with anti-RARβ or NUR77 antibody followed by Western blot using anti-NUR77 or RARβ antibody.

[5] = test system: HDAC1, HDAC4, SIRT1, cyclin A2 (CCNA2); experiment: Western blot of protein deacetylases and cyclin A2 in HCT116 cells; format: cell-based; details: HCT116 cells, 48 hours after transfection, vs. scramble control
Experimental: HCT116 cells were transfected with either an miR-22 mimic or a scramble control, and 48 hours later the protein levels of HDAC4, SIRT1, and cyclin A2 were measured (FIG. 3B). The expression of all three proteins was reduced by treatment with the miR-22 mimic.
as §1

[6] = test system: CYCLIN A2, HDAC1, HDAC4, SIRT1; experiment: Protein levels in Huh7 liver cancer cells; details: liver Huh7 cells treated with miR-22 mimic
HCT116-generated tumors = experiment: Mouse xenograft tumor model; format: in vivo, Athymic nude mice; details: adenoviral miR-22 intratumorally
Experimental: Athymic nude mice (female, 6 weeks old, Jackson Laboratory) were subcutaneously injected by HCT116 cells (1×10^6) in the flank region. When tumor size reached […] of cross-sectional area, a combination of RA plus butyrate or adenoviral-expressing miR-22 (Ad-miR-22) was administered. For RA plus butyrate treatment, mice received RA (2.5 μg/g body weight) and butyrate (1.2 mg/g body weight) intraperitoneally (IP) 5 times a week for 2 weeks. For Ad-miR-22 treatment, mice received Ad-miR-22 (1×10^9 Pfu) intratumorally (IT) twice a week for 2 weeks. Control groups received 1% DMSO in PBS and adenovirus scramble, respectively. Tumor dimensions were measured and tumor volume was calculated using V (volume)=W (width)^2×L (length)/2. All experimental protocols were approved by the University of California Davis Animal Care and Use Committee.

For `CC(/C=C/C(=O)NO)=C\[C@@H](C)C(=O)c1ccc(N(C)C)cc1` [trichostatin A], the “Inhibition of HDAC classes” value [1] is given as “inhibit Class I (HDAC1, 2, 3, and 8) and Class IIa (HDAC4, 5, 7, and 9)”.
With `CCCCC(=O)O` [valerate] the miR-22 expression level (miR-22 [2]) was “induced; also recorded: increased miR-22 level” and the Cell viability [3] was “Markedly reduced cell viability”.
For `C=C1CC[C@H](O)C/C1=C/C=C1\CCC[C@]2(C)[C@@H]([C@H](C)CCCC(C)C)CC[C@@H]12` [vitamin D3], the miR-22 induction (miR-22 [4]) is listed as “induce miR-22”.
With “miR-22: microRNA, SEQ ID NO:1 AAGCUGCCAGUUGAAGAACUGU (listed as RNA, chemistry not fully specified)” the “Acetylated NUR77 and RARβ” value (NUR77 and RARβ) was “increased acetylated NUR77 and RARβ”, the “Protein levels of HDAC1, HDAC4, SIRT1, cyclin A2 after miR-22 (mimic) transfection” value [5] was “inhibited multiple HDACs; also recorded: inhibits HDAC1, HDAC4 and SIRT1; also recorded: HDAC1 protein level was reduced; also recorded: reduced HDAC4 and SIRT1; also recorded: suppress HDAC4 and SIRT1 expression; also recorded: reduces protein deacetylases, including HDAC1” and the “HDAC1, HDAC4, and SIRT1 levels” value [6] was “inhibited multiple HDACs”. The “HDACs and CCNA2 protein levels in tumors” value (HCT116-generated tumors) was “silenced HDACs and CCNA2”, the “NUR77 and RARβ protein levels in tumors” value (HCT116-generated tumors) was “upregulating NUR77 and RARβ” and the “Colon tumor growth / tumor size” value (HCT116-generated tumors; xenograft mice) was “inhibited colon cancer growth; also recorded: effective in inhibiting the growth of colon cancer; also recorded: remarkable effectiveness”.
